Literature values in patent US12268783B2, “Platform drug delivery system utilizing crystal engineering and theanine dissolution” (THEAPRIN PHARMACEUTICALS, INC., priority 2015, dated 2025).

What was measured:
[1] = in humans (so in the source)
[2] = system: human dopaminergic cell line SH-SY5Y; conditions: SH-SY5Y cultures subjected to rotenone and dieldrin, treated or pre-treated with L-Theanine
[3] = system: APP (Swedish Mutation) transgenic SH-SY5Y cell; conditions: via inhibition of the NMDA receptor pathway
[4] = system: rat brain regions; conditions: rat cerebral cortex, hippocampus and cerebellum
[5] = system: cancer cells; conditions: without an increase in DOX-induced side effects
[6] = system: human red blood cells (RBC) exposed to venom or purified venom porin; conditions: RBC exposed to total venom or purified porin

Molecule	LD50 toxicity [1] [mg/kg]	DNA fragmentation and apoptotic cell death [2]	protection against glutamate-induced excitotoxicity [3]	protective effect against aluminum-induced neurotoxicity [4]	effect on antitumor activity of doxorubicin (DOX) [5]	potassium efflux from RBC [6]
CCNC(=O)CC[C@H](N)C(=O)O [Theanine, 5-N-ethyl-glutamine]	> 5000	decreased DNA fragmentation and apoptotic cell death	protects	counteracting the damage inflicted by aluminum	enhances the antitumor activity of doxorubicin	–
zinc gluconate	–	–	–	–	–	inhibited potassium efflux
